Holding throughout (assay type): functional
The subject of one assay is Escherichia coli. The assay is described as follows: Antibacterial activity against Escherichia coli ATCC 25922 assessed as inhibition of bacterial growth incubated for 96 hrs by broth microdilution method.
For the next assay, the system named is Streptococcus pneumoniae. The assay is described as follows: Antibacterial activity against Streptococcus pneumoniae ATCC 49619 assessed as inhibition of bacterial growth incubated for 96 hrs by broth microdilution method.
Assay [1] deals with Staphylococcus aureus. Put plainly: Antibacterial activity against methicillin-resistant Staphylococcus aureus ATCC43300 assessed as inhibition of bacterial growth incubated for 96 hrs by broth microdilution method.
The test system of assay [2] is Staphylococcus aureus. Put plainly: Antibacterial activity against Staphylococcus aureus ATCC 29213 assessed as inhibition of bacterial growth incubated for 96 hrs by broth microdilution method.
Assay [3] deals with Staphylococcus epidermidis. Put plainly: Antibacterial activity against methicillin-resistant Staphylococcus epidermidis ATCC 51625 assessed as inhibition of bacterial growth incubated for 96 hrs by broth microdilution method.

≈ marks a conversion by molar mass, not a printed value.

`C=C[C@]1(C)C[C@@H](OC(=O)CSc2ccccc2O)[C@]2(C)[C@H](C)CC[C@]3(CCC(=O)[C@H]32)[C@@H](C)[C@@H]1O`: the minimal inhibitory concentration (MIC) is greater than 64 µg/mL in the assay with Escherichia coli; 0.125 µg/mL (≈ 0.257 µM) in the assay with Streptococcus pneumoniae; 0.125 µg/mL (≈ 0.257 µM) in the assay on Staphylococcus aureus [1]; 0.125 µg/mL (≈ 0.257 µM) with Staphylococcus aureus [2]; 0.125 µg/mL (≈ 0.257 µM) in assay [3].

`C=C[C@]1(C)C[C@@H](OC(=O)CSc2ccccc2OCc2ccc(C)cc2)[C@]2(C)[C@H](C)CC[C@]3(CCC(=O)[C@H]32)[C@@H](C)[C@@H]1O`: the MIC with Escherichia coli is greater than 64 µg/mL; in the assay on Streptococcus pneumoniae, 16 µg/mL (≈ 27.1 µM); with Staphylococcus aureus [1], 32 µg/mL (≈ 54.2 µM); in the assay on Staphylococcus aureus [2] it was 16 µg/mL (≈ 27.1 µM); in assay [3], 32 µg/mL (≈ 54.2 µM).

Turning to `C=C[C@]1(C)C[C@@H](OC(=O)CSc2cccc(OCc3ccc(C(=O)OC(C)(C)C)cc3)c2)[C@]2(C)[C@H](C)CC[C@]3(CCC(=O)[C@H]32)[C@@H](C)[C@@H]1O`, the MIC was greater than 64 µg/mL in the assay on Escherichia coli; 8 µg/mL (≈ 11.8 µM) with Streptococcus pneumoniae; 32 µg/mL (≈ 47.3 µM) in the assay with Staphylococcus aureus [1]; 4 µg/mL (≈ 5.91 µM) in the assay with Staphylococcus aureus [2]; 8 µg/mL (≈ 11.8 µM) in assay [3].

As for `C=C[C@]1(C)C[C@@H](OC(=O)CSc2ccc(OCC(=O)N3CCS(=O)(=O)CC3)cc2)[C@]2(C)[C@H](C)CC[C@]3(CCC(=O)[C@H]32)[C@@H](C)[C@@H]1O`, the MIC with Escherichia coli is greater than 64 µg/mL; with Streptococcus pneumoniae it was 0.25 µg/mL (≈ 0.378 µM); with Staphylococcus aureus [1], less than 0.031 µg/mL; in the assay with Staphylococcus aureus [2], less than 0.031 µg/mL; in assay [3], less than 0.031 µg/mL.

Regarding `C=C[C@]1(C)C[C@@H](OC(=O)CSc2ccc(O)cc2)[C@]2(C)[C@H](C)CC[C@]3(CCC(=O)[C@H]32)[C@@H](C)[C@@H]1O`, the minimum inhibitory concentration (MIC) in the assay on Escherichia coli was greater than 64 µg/mL; in the assay with Streptococcus pneumoniae, 0.125 µg/mL (≈ 0.257 µM); with Staphylococcus aureus [1] it was 0.062 µg/mL (≈ 0.127 µM); in the assay with Staphylococcus aureus [2], 0.062 µg/mL (≈ 0.127 µM); in assay [3], 0.062 µg/mL (≈ 0.127 µM).

As for `C=C[C@]1(C)C[C@@H](OC(=O)CSc2ccc(OCCCC)cc2)[C@]2(C)[C@H](C)CC[C@]3(CCC(=O)[C@H]32)[C@@H](C)[C@@H]1O`, the minimum inhibitory concentration (MIC) was greater than 64 µg/mL in the assay with Escherichia coli; 0.5 µg/mL (≈ 0.921 µM) with Streptococcus pneumoniae; 1 µg/mL (≈ 1.84 µM) in the assay on Staphylococcus aureus [1]; 2 µg/mL (≈ 3.68 µM) in the assay with Staphylococcus aureus [2]; 0.5 µg/mL (≈ 0.921 µM) in assay [3].

As for `C=C[C@]1(C)C[C@@H](OC(=O)CSc2cccc(O)c2)[C@]2(C)[C@H](C)CC[C@]3(CCC(=O)[C@H]32)[C@@H](C)[C@@H]1O`, the MIC with Escherichia coli is greater than 64 µg/mL; with Streptococcus pneumoniae, 0.125 µg/mL (≈ 0.257 µM); with Staphylococcus aureus [1], 0.062 µg/mL (≈ 0.127 µM); with Staphylococcus aureus [2], 0.125 µg/mL (≈ 0.257 µM); in assay [3], 0.125 µg/mL (≈ 0.257 µM).

With `C=C[C@]1(C)C[C@@H](OC(=O)CSc2ccc(OCC#CC)cc2)[C@]2(C)[C@H](C)CC[C@]3(CCC(=O)[C@H]32)[C@@H](C)[C@@H]1O`, the minimum inhibitory concentration (MIC) with Escherichia coli is greater than 64 µg/mL; in the assay on Streptococcus pneumoniae, 0.062 µg/mL (≈ 0.115 µM); in the assay with Staphylococcus aureus [1] it was 0.25 µg/mL (≈ 0.464 µM); in the assay with Staphylococcus aureus [2], 0.25 µg/mL (≈ 0.464 µM); in assay [3] it was 0.125 µg/mL (≈ 0.232 µM).

`C=CCCOc1ccccc1SCC(=O)O[C@@H]1C[C@@](C)(C=C)[C@@H](O)[C@H](C)[C@]23CCC(=O)[C@H]2[C@@]1(C)[C@H](C)CC3`: the minimum inhibitory concentration (MIC) was greater than 64 µg/mL in the assay on Escherichia coli; less than 0.031 µg/mL in the assay on Streptococcus pneumoniae; 0.125 µg/mL (≈ 0.231 µM) in the assay on Staphylococcus aureus [1]; less than 0.031 µg/mL in the assay on Staphylococcus aureus [2]; 0.031 µg/mL (≈ 0.0573 µM) in assay [3].

On to `C=C[C@]1(C)C[C@@H](OC(=O)CSc2ccccc2OCc2ccc(-c3ccccc3C#N)cc2)[C@]2(C)[C@H](C)CC[C@]3(CCC(=O)[C@H]32)[C@@H](C)[C@@H]1O`, for which the MIC in the assay with Escherichia coli is greater than 64 µg/mL; in the assay with Streptococcus pneumoniae, 2 µg/mL (≈ 2.95 µM); with Staphylococcus aureus [1], 2 µg/mL (≈ 2.95 µM); with Staphylococcus aureus [2], 2 µg/mL (≈ 2.95 µM); in assay [3], 4 µg/mL (≈ 5.9 µM).

In the case of `C=C[C@]1(C)C[C@@H](OC(=O)CSc2ccc(OCc3ccc(C)cc3)cc2)[C@]2(C)[C@H](C)CC[C@]3(CCC(=O)[C@H]32)[C@@H](C)[C@@H]1O`, the MIC in the assay on Escherichia coli is greater than 64 µg/mL; in the assay on Streptococcus pneumoniae it was 16 µg/mL (≈ 27.1 µM); with Staphylococcus aureus [1] it was 16 µg/mL (≈ 27.1 µM); in the assay on Staphylococcus aureus [2], 16 µg/mL (≈ 27.1 µM); in assay [3] it was 16 µg/mL (≈ 27.1 µM).

`C=C[C@]1(C)C[C@@H](OC(=O)CSc2ccccc2OCc2ccc(C(=O)OC(C)(C)C)cc2)[C@]2(C)[C@H](C)CC[C@]3(CCC(=O)[C@H]32)[C@@H](C)[C@@H]1O`: the minimum inhibitory concentration (MIC) with Escherichia coli is greater than 64 µg/mL; with Streptococcus pneumoniae, 16 µg/mL (≈ 23.6 µM); in the assay on Staphylococcus aureus [1], 32 µg/mL (≈ 47.3 µM); in the assay with Staphylococcus aureus [2], 16 µg/mL (≈ 23.6 µM); in assay [3], 16 µg/mL (≈ 23.6 µM).

On to `C=C[C@]1(C)C[C@@H](OC(=O)CSc2ccc(OCc3ccc(-c4ccccc4C#N)cc3)cc2)[C@]2(C)[C@H](C)CC[C@]3(CCC(=O)[C@H]32)[C@@H](C)[C@@H]1O`, for which the MIC was greater than 64 µg/mL with Escherichia coli; 2 µg/mL (≈ 2.95 µM) with Streptococcus pneumoniae; 2 µg/mL (≈ 2.95 µM) in the assay on Staphylococcus aureus [1]; 4 µg/mL (≈ 5.9 µM) in the assay with Staphylococcus aureus [2]; 4 µg/mL (≈ 5.9 µM) in assay [3].

Regarding `C=CCCOc1cccc(SCC(=O)O[C@@H]2C[C@@](C)(C=C)[C@@H](O)[C@H](C)[C@]34CCC(=O)[C@H]3[C@@]2(C)[C@H](C)CC4)c1`, the MIC in the assay on Escherichia coli is greater than 64 µg/mL; in the assay with Streptococcus pneumoniae, 0.5 µg/mL (≈ 0.925 µM); in the assay with Staphylococcus aureus [1], 0.5 µg/mL (≈ 0.925 µM); in the assay on Staphylococcus aureus [2] it was 0.5 µg/mL (≈ 0.925 µM); in assay [3], 0.25 µg/mL (≈ 0.462 µM).

As for `C=C[C@]1(C)C[C@@H](OC(=O)CSc2ccc(OCc3ccc(C(=O)OC(C)(C)C)cc3)cc2)[C@]2(C)[C@H](C)CC[C@]3(CCC(=O)[C@H]32)[C@@H](C)[C@@H]1O`, the MIC is greater than 64 µg/mL with Escherichia coli; 8 µg/mL (≈ 11.8 µM) in the assay on Streptococcus pneumoniae; 32 µg/mL (≈ 47.3 µM) in the assay on Staphylococcus aureus [1]; 4 µg/mL (≈ 5.91 µM) in the assay with Staphylococcus aureus [2]; 8 µg/mL (≈ 11.8 µM) in assay [3].

`C=CCCOc1ccc(SCC(=O)O[C@@H]2C[C@@](C)(C=C)[C@@H](O)[C@H](C)[C@]34CCC(=O)[C@H]3[C@@]2(C)[C@H](C)CC4)cc1`: the MIC in the assay with Escherichia coli was greater than 64 µg/mL; with Streptococcus pneumoniae it was 0.125 µg/mL (≈ 0.231 µM); with Staphylococcus aureus [1], 0.25 µg/mL (≈ 0.462 µM); in the assay on Staphylococcus aureus [2], 0.25 µg/mL (≈ 0.462 µM); in assay [3], 0.125 µg/mL (≈ 0.231 µM).

With `C=C[C@]1(C)C[C@@H](OC(=O)CSc2cccc(OCc3ccc(C)cc3)c2)[C@]2(C)[C@H](C)CC[C@]3(CCC(=O)[C@H]32)[C@@H](C)[C@@H]1O`, the MIC in the assay with Escherichia coli was greater than 64 µg/mL; with Streptococcus pneumoniae, 16 µg/mL (≈ 27.1 µM); with Staphylococcus aureus [1], 16 µg/mL (≈ 27.1 µM); in the assay with Staphylococcus aureus [2] it was 16 µg/mL (≈ 27.1 µM); in assay [3], 32 µg/mL (≈ 54.2 µM).

In the case of `C=C[C@]1(C)C[C@@H](OC(=O)CSc2cccc(OCC#CC)c2)[C@]2(C)[C@H](C)CC[C@]3(CCC(=O)[C@H]32)[C@@H](C)[C@@H]1O`, the MIC in the assay with Escherichia coli is greater than 64 µg/mL; in the assay with Streptococcus pneumoniae, less than 0.031 µg/mL; in the assay on Staphylococcus aureus [1] it was 0.125 µg/mL (≈ 0.232 µM); in the assay on Staphylococcus aureus [2], 0.125 µg/mL (≈ 0.232 µM); in assay [3], 0.125 µg/mL (≈ 0.232 µM).

For the compound `C=C[C@]1(C)C[C@@H](OC(=O)CSc2ccccc2OCCCC)[C@]2(C)[C@H](C)CC[C@]3(CCC(=O)[C@H]32)[C@@H](C)[C@@H]1O`, the MIC in the assay on Escherichia coli is greater than 64 µg/mL; in the assay with Streptococcus pneumoniae, 0.5 µg/mL (≈ 0.921 µM); with Staphylococcus aureus [1], 0.5 µg/mL (≈ 0.921 µM); in the assay on Staphylococcus aureus [2], 0.5 µg/mL (≈ 0.921 µM); in assay [3], 0.25 µg/mL (≈ 0.461 µM).

As to `C=C[C@]1(C)C[C@@H](OC(=O)CSc2cccc(OCCCC)c2)[C@]2(C)[C@H](C)CC[C@]3(CCC(=O)[C@H]32)[C@@H](C)[C@@H]1O`, the MIC is greater than 64 µg/mL in the assay on Escherichia coli; 2 µg/mL (≈ 3.68 µM) in the assay on Streptococcus pneumoniae; 2 µg/mL (≈ 3.68 µM) with Staphylococcus aureus [1]; 2 µg/mL (≈ 3.68 µM) with Staphylococcus aureus [2]; 1 µg/mL (≈ 1.84 µM) in assay [3].

With `C=C[C@]1(C)C[C@@H](OC(=O)CSc2ccccc2OCC#CC)[C@]2(C)[C@H](C)CC[C@]3(CCC(=O)[C@H]32)[C@@H](C)[C@@H]1O`, the minimum inhibitory concentration (MIC) was greater than 64 µg/mL in the assay on Escherichia coli; less than 0.031 µg/mL in the assay with Streptococcus pneumoniae; 0.125 µg/mL (≈ 0.232 µM) in the assay with Staphylococcus aureus [1]; 0.125 µg/mL (≈ 0.232 µM) in the assay on Staphylococcus aureus [2]; 0.125 µg/mL (≈ 0.232 µM) in assay [3].

Consider `C=C[C@]1(C)C[C@@H](OC(=O)CSc2cccc(OCc3ccc(-c4ccccc4C#N)cc3)c2)[C@]2(C)[C@H](C)CC[C@]3(CCC(=O)[C@H]32)[C@@H](C)[C@@H]1O`, for which the MIC in the assay on Escherichia coli is greater than 64 µg/mL; in the assay with Streptococcus pneumoniae, 2 µg/mL (≈ 2.95 µM); with Staphylococcus aureus [1] it was 2 µg/mL (≈ 2.95 µM); with Staphylococcus aureus [2], 4 µg/mL (≈ 5.9 µM); in assay [3], 8 µg/mL (≈ 11.8 µM).

For the origin of these results see ChEMBL document CHEMBL6153030, “Design, synthesis, and biological evaluation of novel pleuromutilin derivatives with methicillin-resistant Staphylococcus aureus -targeting phenol linker groups” (Eur J Med Chem, 2025).
